Measurements taken from patent publication US20250171437A1 (Agios Pharmaceuticals,Inc., priority 2022, published 2025).

What follows are compounds tested against T1, human PAH with the R408W mutation (A375 R408W cells) (Homo sapiens, UniProt P00439, R408W) (assay: Cell Based Phenylalanine Flux Assay). Settings: A375 R408W cells; 24 hrs with compound, then 20 μM sepiapterin and 800 μM 13C9,15N-Phenylalanine for 4 hours; 13C-Tyrosine by LC-MS; average where tested multiple times.
T1 construct: expressed in transfected cells
T1 sequence (P00439 1-452 R408W): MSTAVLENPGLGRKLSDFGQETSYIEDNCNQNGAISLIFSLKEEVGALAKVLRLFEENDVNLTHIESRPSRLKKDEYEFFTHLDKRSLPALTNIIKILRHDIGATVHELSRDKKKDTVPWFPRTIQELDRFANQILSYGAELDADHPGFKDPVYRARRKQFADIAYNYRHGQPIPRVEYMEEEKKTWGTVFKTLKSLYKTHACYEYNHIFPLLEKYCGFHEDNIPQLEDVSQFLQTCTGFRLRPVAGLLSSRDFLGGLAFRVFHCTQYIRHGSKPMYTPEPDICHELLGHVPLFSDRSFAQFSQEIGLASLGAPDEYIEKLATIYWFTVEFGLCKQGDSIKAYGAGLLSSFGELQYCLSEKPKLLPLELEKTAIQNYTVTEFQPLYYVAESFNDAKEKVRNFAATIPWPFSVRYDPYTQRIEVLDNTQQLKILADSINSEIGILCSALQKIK
Procedure, shortened: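 LC-MS quantitation of 13C-tyrosine in media gave AC50 values. Stable A375 R408W PAH cells were preincubated 24 h with compound, then fed 800 μM labelled Phe plus 20 μM sepiapterin for 4 h. Dose curves were 10-point, tested in duplicate, averaged over repeat runs.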

| SMILES | AC50 [nM] |
| --- | --- |
| CC(C)(CO)c1nc(C(F)F)c(C(=O)N2CCc3[nH]cnc3[C@H]2c2nc3cc(F)ccc3o2)o1 [Example 824, (S)-(4-(difluoromethyl)-2-(1-hydroxy-2-methylpropan-2-yl)oxazol-5-yl)(4-(5-fluorobenzo[d]oxazol-2-yl)-6,7-dihydro-1H-imidazo[4,5-c]pyridin-5(4H)-yl)methanone] | ≤ 500 |
| O=C(c1cnn2cc(N3CCC(O)CC3)ccc12)N1CCc2[nH]cnc2[C@@H]1c1nc2cccc(F)c2o1 [Example 372, (R)-(4-(7-fluorobenzo[d]oxazol-2-yl)-6,7-dihydro-1H-imidazo[4,5-c]pyridin-5(4H)-yl)(6-(4-hydroxypiperidin-1-yl)pyrazolo[1,5-a]pyridin-3-yl)methanone] | 1000 to 5000 |
| O=C(c1cnn2cc(-c3ccccn3)ccc12)N1CCc2[nH]cnc2[C@@H]1c1nc2cccc(F)c2o1 [Example 452, (R)-(4-(7-fluorobenzo[d]oxazol-2-yl)-6,7-dihydro-1H-imidazo[4,5-c]pyridin-5(4H)-yl)(6-(pyridin-2-yl)pyrazolo[1,5-a]pyridin-3-yl)methanone] | 1000 to 5000 |
| O=C(c1oc(-c2ccncn2)nc1C(F)F)N1CCc2[nH]cnc2[C@H]1c1nc2cccc(F)c2o1 [Example 773, (S)-(4-(difluoromethyl)-2-(pyrimidin-4-yl)oxazol-5-yl)(4-(7-fluorobenzo[d]oxazol-2-yl)-6,7-dihydro-1H-imidazo[4,5-c]pyridin-5(4H)-yl)methanone] | ≤ 500 |
| O=C(c1ocnc1C(F)F)N1CCc2[nH]cnc2[C@H]1c1nc2c(C(F)(F)F)cccc2o1 [Example 465, (S)-(4-(difluoromethyl)oxazol-5-yl)(4-(4-(trifluoromethyl)benzo[d]oxazol-2-yl)-6,7-dihydro-1H-imidazo[4,5-c]pyridin-5(4H)-yl)methanone] | ≤ 500 |
| O=C(c1cnn2cc(N3CCC(F)CC3)ccc12)N1CCc2[nH]cnc2[C@H]1c1nc2c(F)cccc2o1 [Example 477, (S)-(4-(4-fluorobenzo[d]oxazol-2-yl)-6,7-dihydro-1H-imidazo[4,5-c]pyridin-5(4H)-yl)(6-(4-fluoropiperidin-1-yl)pyrazolo[1,5-a]pyridin-3-yl)methanone] | ≤ 500 |
| O=C(c1ocnc1C(F)F)N1CCc2[nH]cnc2[C@H]1c1nc2cc(OC(F)(F)F)ccc2o1 [Example 354, (S)-(4-(difluoromethyl)oxazol-5-yl)(4-(5-(trifluoromethoxy)benzo[d]oxazol-2-yl)-6,7-dihydro-1H-imidazo[4,5-c]pyridin-5(4H)-yl)methanone] | ≤ 500 |
| O=C(c1ccnn1CC(F)F)N1CCc2[nH]cnc2[C@H]1c1nc2cccc(F)c2o1 [Example 847, (S)-(1-(2,2-difluoroethyl)-1H-pyrazol-5-yl)(4-(7-fluorobenzo[d]oxazol-2-yl)-6,7-dihydro-1H-imidazo[4,5-c]pyridin-5(4H)-yl)methanone] | ≤ 500 |
| Cc1nc(C(=O)N2CCc3[nH]cnc3[C@@H]2c2nc3cccc(C)c3o2)n(C)n1 [Example 908, (R)-(1,3-dimethyl-1H-1,2,4-triazol-5-yl)(4-(7-methylbenzo[d]oxazol-2-yl)-6,7-dihydro-1H-imidazo[4,5-c]pyridin-5(4H)-yl)methanone] | 1000 to 5000 |
| COc1cccc2oc([C@@H]3c4nc[nH]c4CCN3C(=O)c3nnc(-c4cnn(C)c4)o3)nc12 [Example 626, (S)-(4-(4-methoxybenzo[d]oxazol-2-yl)-6,7-dihydro-1H-imidazo[4,5-c]pyridin-5(4H)-yl)(5-(1-methyl-1H-pyrazol-4-yl)-1,3,4-oxadiazol-2-yl)methanone] | ≤ 500 |
| Cc1cccc2oc([C@@H]3c4nc[nH]c4CCN3C(=O)c3cnn4cc(N5CCC(O)CC5)ccc34)nc12 [Example 701, (S)-(6-(4-hydroxypiperidin-1-yl)pyrazolo[1,5-a]pyridin-3-yl)(4-(4-methylbenzo[d]oxazol-2-yl)-6,7-dihydro-1H-imidazo[4,5-c]pyridin-5(4H)-yl)methanone] | ≤ 500 |
| Cc1cccc2nc([C@H]3c4nc[nH]c4CCN3C(=O)c3ocnc3C(F)F)oc12 [Example 394, (R)-(4-(difluoromethyl)oxazol-5-yl)(4-(7-methylbenzo[d]oxazol-2-yl)-6,7-dihydro-1H-imidazo[4,5-c]pyridin-5(4H)-yl)methanone] | 500 to 1000 |
| O=C(c1cnco1)N1CCc2[nH]cnc2[C@H]1c1nc2cc(F)cc(F)c2o1 [Example 575, (S)-(4-(5,7-difluorobenzo[d]oxazol-2-yl)-6,7-dihydro-1H-imidazo[4,5-c]pyridin-5(4H)-yl)(oxazol-5-yl)methanone] | 1000 to 5000 |
| O=C(c1oc(-c2cnccn2)nc1C(F)F)N1CCc2[nH]cnc2[C@@H]1c1nc2cc(F)ccc2o1 [Example 528, (R)-(4-(difluoromethyl)-2-(pyrazin-2-yl)oxazol-5-yl)(4-(5-fluorobenzo[d]oxazol-2-yl)-6,7-dihydro-1H-imidazo[4,5-c]pyridin-5(4H)-yl)methanone] | 1000 to 5000 |
| O=C(c1nnc(-c2cnn(C(F)F)c2)o1)N1CCc2[nH]cnc2[C@H]1c1nc2ccccc2o1 [Example 841, (S)-(4-(benzo[d]oxazol-2-yl)-6,7-dihydro-1H-imidazo[4,5-c]pyridin-5(4H)-yl)(5-(1-(difluoromethyl)-1H-pyrazol-4-yl)-1,3,4-oxadiazol-2-yl)methanone] | ≤ 500 |
| O=C(c1nnc(-c2ncccc2F)o1)N1CCc2[nH]cnc2[C@H]1c1nc2ccccc2o1 [Example 833, (S)-(4-(benzo[d]oxazol-2-yl)-6,7-dihydro-1H-imidazo[4,5-c]pyridin-5(4H)-yl)(5-(3-fluoropyridin-2-yl)-1,3,4-oxadiazol-2-yl)methanone] | ≤ 500 |
| O=C(c1oc(-c2ccccn2)nc1C1CC1)N1CCc2[nH]cnc2[C@@H]1c1nc2cc(F)ccc2o1 [Example 44, (R)-(4-cyclopropyl-2-(pyridin-2-yl)oxazol-5-yl)(4-(5-fluorobenzo[d]oxazol-2-yl)-6,7-dihydro-1H-imidazo[4,5-c]pyridin-5(4H)-yl)methanone] | 1000 to 5000 |
| COc1ccc(-c2nc(C(F)F)c(C(=O)N3CCc4[nH]cnc4[C@@H]3c3nc4cc(F)ccc4o3)o2)nc1 [Example 446, (R)-(4-(difluoromethyl)-2-(5-methoxypyridin-2-yl)oxazol-5-yl)(4-(5-fluorobenzo[d]oxazol-2-yl)-6,7-dihydro-1H-imidazo[4,5-c]pyridin-5(4H)-yl)methanone] | ≤ 500 |
| Cn1cnc(-c2nc(C(F)(F)F)c(C(=O)N3CCc4[nH]cnc4[C@@H]3c3nc4cc(F)ccc4o3)o2)c1 [Example 789, (R)-(4-(5-fluorobenzo[d]oxazol-2-yl)-6,7-dihydro-1H-imidazo[4,5-c]pyridin-5(4H)-yl)(2-(1-methyl-1H-imidazol-4-yl)-4-(trifluoromethyl)oxazol-5-yl)methanone] | 1000 to 5000 |
| O=C(c1ocnc1C(F)F)N1CCc2[nH]cnc2[C@H]1c1nc2cccc(C(F)(F)F)c2o1 [Example 493, (S)-(4-(difluoromethyl)oxazol-5-yl)(4-(7-(trifluoromethyl)benzo[d]oxazol-2-yl)-6,7-dihydro-1H-imidazo[4,5-c]pyridin-5(4H)-yl)methanone] | ≤ 500 |
| O=C(c1ocnc1C(F)(F)F)N1CCc2[nH]cnc2[C@H]1c1nc2cc(Br)ccc2o1 [Example 147, (S)-(4-(5-bromobenzo[d]oxazol-2-yl)-6,7-dihydro-1H-imidazo[4,5-c]pyridin-5(4H)-yl)(4-(trifluoromethyl)oxazol-5-yl)methanone] | ≤ 500 |
| CC(C)(O)c1nc(C(F)F)c(C(=O)N2CCc3[nH]cnc3[C@@H]2c2nc3ccc(F)cc3o2)o1 [Example 188, (R)-(4-(difluoromethyl)-2-(2-hydroxypropan-2-yl)oxazol-5-yl)(4-(6-fluorobenzo[d]oxazol-2-yl)-6,7-dihydro-1H-imidazo[4,5-c]pyridin-5(4H)-yl)methanone] | 1000 to 5000 |

Same assay, conditions: A375 cells expressing R408W PAH; 24 hrs with compound, then 20 μM sepiapterin and 800 μM 13C9,15N-Phenylalanine for 4 hours; 13C-Tyrosine by LC-MS; average where tested multiple times

| SMILES | AC50 [nM] |
| --- | --- |
| CC(C)(c1nc(C(F)F)c(C(=O)N2CCc3[nH]cnc3C2c2nc3cc(F)ccc3o2)o1)S(C)(=O)=O (stereo not shown) | 1000 to 5000 |
| Cc1ccc2oc(C3c4nc[nH]c4CCN3C(=O)c3cnn4cc(CCN(C)C)ccc34)nc2c1 (stereo not shown) | ≥ 5000 |
| Cn1ncnc1C(=O)N1CCc2[nH]cnc2C1c1nc2cc(F)ccc2o1 (stereo not shown) | 1000 to 5000 |
| O=C(c1oc(C2CCN2)nc1C(F)F)N1CCc2[nH]cnc2C1c1nc2cc(F)ccc2o1 (stereo not shown) | 1000 to 5000 |
| Cn1cnnc1C(=O)N1CCc2[nH]cnc2C1c1nc2cc(F)ccc2o1 (stereo not shown) | 1000 to 5000 |
| Fc1ccc2oc(C3c4nc[nH]c4CCN3Cc3cnco3)nc2c1 (stereo not shown) | ≥ 5000 |
| Cc1nc([C@H](C)O)oc1C(=O)N1CCc2[nH]cnc2C1c1nc2cc(F)ccc2o1 (single isomer, unassigned) | 1000 to 5000 |
| CC(C)(O)c1nc(C(F)F)c(C(=O)N2CCc3[nH]cnc3C2c2nc3cc(F)ccc3o2)s1 (stereo not shown) | 1000 to 5000 |
| Cn1ncc(C(=O)N2CCc3[nH]cnc3C2c2nc3cc(F)ccc3o2)c1C(F)F (stereo not shown) | 1000 to 5000 |
| Cn1nc(C(C)(C)C)nc1C(=O)N1CCc2[nH]cnc2C1c1nc2ccccc2o1 (stereo not shown) | ≥ 5000 |
| CC(C)(O)c1cc(C(=O)N2CCc3[nH]cnc3C2c2nc3c(F)cccc3o2)no1 (stereo not shown) | 1000 to 5000 |
| Cc1ccc2nc(C3c4nc[nH]c4CCN3C(=O)c3nnc(C)o3)oc2c1 (stereo not shown) | ≥ 5000 |
